Test results published in patent US20210186915A1, “PHARMACEUTICAL COMPOSITIONS HAVING HIGH DRUG LOADINGS OF MEDIUM CHAIN TRIGLYCERIDES AND METHODS RELATED THERETO” (Cerecin Inc., priority 2018, published 2021).

Tests used:
[1] = Visual dissolution study in SLS/water solution (scintillation vials); type: physicochemical; settings: 250 mg oil in 10 ml 0.25% or 0.5% SLS in water, stirred 20 minutes
Method: Visual dissolution studies were conducted at small scale using 20 ml scintillation vials on LMP formulations 1 through 3. The test was conducted at 37° C., 25° C. and 5° C. using a 0.25% Sodium Laurel Sulfate (SLS) in water solution. A heated aluminum block and heated stir plate were used in the study. 500 mg (250 mgA, 25 mgA/mL) of each LMP formulation was added to 10 mL pre-heated 0.25% SLS solution. The samples were stirred using a Teflon stir bar on a heated stir plate to maintain temperature for 20 minutes. After 20 minutes, the LMP suspensions were allowed to settle and were assessed visually.
Finally the test was repeated using only LMP-1 and a 0.5% SLS/water solution to access if additional surfactant would help with the apparent dissolution by increasing the solubility of the oil in water.
An oil dissolution control test was conducted to determine how the caprylic triglyceride (Miglyol 808) oil dissolves into an SLS/water solution. Two SLS stock solutions were made at 0.25% and 0.5% SLS in water. 10 ml of each SLS solution was added to a scintillation vial along with a magnetic stir bar. 250 mg of caprylic triglyceride (Miglyol 808) oil was added to each vial and stirred for 20 minutes. Images were taken after 10 minutes and two days. […] The vial does appear slightly hazy in the 10 minute photo indicating some oil is likely emulsified in the water phase. […]

[2] = USP Type II sink dissolution, 2.0 wt % SLS in pH 6.8 buffer; type: physicochemical; settings: for % LC Release, 10μ filtered: 500 mgA in 900 mL, 37° C.
Method: LMPs 1, 2, and 3 were tested in a USP Type II sink dissolution experiment along with caprylic triglyceride (Miglyol 808) oil. 500 mgA of formulation was dosed into a 1000 mL vessel containing 900 mL of 2.0wt % SLS in pH 6.8 buffer. Samples were taken at 30 minutes and 17.5 hours.
LMP-5, 7, 9, and 11 formulations were tested in a USP Type II sink dissolution experiment sink performance test using methods outlined described in EXAMPLE 3 (Tables 3-A, 3-B). […] The release rate trends as expected, in that adding more carnauba wax to the LMP matrix slows the dissolution. This is because carnauba wax is more hydrophobic than Compritol 888. […] Adding a pore former to the base LMP-11 formulation may allow for increased dissolution performance by enhancing water permeability while maintaining the desirable physical and handling attributes.
Formulations BREC1690-155, 156, 160, 161, and 162 were tested in a sink dissolution performance test using methods outlined herein at EXAMPLE 3 (Tables 3-A and 3-B). The dissolution rate was increased by the addition of a water soluble component (PVP 17PF, PVP-VA 64 or poloxamer P407). Dissolution was tested on formulations BREC1690-155, 156, 160, 161, and 162. Comparisons of previous Compritol based LMPs (LMP-2 and LMP-5) and BREC1690- 155, 156, and 162 with a dissolution enhancer are shown in FIG. 22.

caprylic triglyceride [Miglyol 808]
oil dissolution control, visual [1]: majority of the oil floats on top of the water rather than going into solution
% LC Release, centrifuged ([2]; 30 minutes): 31.6% ± 2%
% LC Release, 10μ filtered ([2]; 30 minutes): 64% (n = 1) % LC
% LC Release, 0.2μ filtered ([2]; 17.5 hours): 87% ± 7%
% LC Release, centrifuged ([2]; 17.5 hours): 27.3% ± 0.6%
% LC Release, 10μ filtered ([2]; 17.5 hours): 46.5% ± 0.5%
